Like-named read-outs stand apart in the source and are kept apart here. Bounds are passed on as bounds.

Holding throughout (assay): Ambit kinase profiling, competition binding
One test deals with T1, STK36 (Homo sapiens, UniProt Q9NRP7).
T1 construct: purchased Ambit Biosciences (KINOMEscan)
T1 sequence (Q9NRP7 1-1315): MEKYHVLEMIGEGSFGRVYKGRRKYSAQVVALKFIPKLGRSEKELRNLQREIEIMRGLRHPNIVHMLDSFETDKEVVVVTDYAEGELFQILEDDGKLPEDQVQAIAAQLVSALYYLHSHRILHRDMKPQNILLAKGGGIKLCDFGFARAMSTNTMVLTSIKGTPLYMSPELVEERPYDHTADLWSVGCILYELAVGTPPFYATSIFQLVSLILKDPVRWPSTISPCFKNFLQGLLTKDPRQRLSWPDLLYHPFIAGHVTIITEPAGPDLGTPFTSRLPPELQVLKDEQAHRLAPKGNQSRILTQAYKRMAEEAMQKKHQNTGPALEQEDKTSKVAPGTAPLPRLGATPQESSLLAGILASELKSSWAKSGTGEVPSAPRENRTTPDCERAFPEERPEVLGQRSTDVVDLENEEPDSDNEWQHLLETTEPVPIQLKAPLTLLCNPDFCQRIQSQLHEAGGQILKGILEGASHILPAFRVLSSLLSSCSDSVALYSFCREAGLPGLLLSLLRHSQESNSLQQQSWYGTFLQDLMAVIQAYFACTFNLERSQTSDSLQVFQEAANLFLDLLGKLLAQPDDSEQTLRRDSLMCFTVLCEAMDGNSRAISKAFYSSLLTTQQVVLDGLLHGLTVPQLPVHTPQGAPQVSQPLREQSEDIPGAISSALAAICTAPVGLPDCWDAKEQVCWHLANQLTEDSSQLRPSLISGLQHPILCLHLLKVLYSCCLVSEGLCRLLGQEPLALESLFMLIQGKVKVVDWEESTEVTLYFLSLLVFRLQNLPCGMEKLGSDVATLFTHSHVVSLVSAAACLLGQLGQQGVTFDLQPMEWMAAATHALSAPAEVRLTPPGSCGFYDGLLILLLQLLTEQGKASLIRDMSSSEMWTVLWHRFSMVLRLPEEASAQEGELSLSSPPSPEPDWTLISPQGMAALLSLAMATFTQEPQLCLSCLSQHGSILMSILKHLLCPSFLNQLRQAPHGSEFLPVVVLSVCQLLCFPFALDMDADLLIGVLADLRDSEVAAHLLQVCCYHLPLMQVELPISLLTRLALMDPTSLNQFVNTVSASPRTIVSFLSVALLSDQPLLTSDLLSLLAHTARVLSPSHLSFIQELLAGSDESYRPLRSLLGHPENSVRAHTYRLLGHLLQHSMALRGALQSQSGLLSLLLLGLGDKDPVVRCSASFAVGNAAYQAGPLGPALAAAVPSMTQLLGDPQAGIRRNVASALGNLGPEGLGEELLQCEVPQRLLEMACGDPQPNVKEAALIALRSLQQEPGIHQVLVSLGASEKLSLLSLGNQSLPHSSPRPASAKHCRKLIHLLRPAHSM
The procedure: (§1) Also included in the kinase profile are four isoforms of PKC (δ, ε, η, θ) and eight isoforms of CAMKs (CAMKIα, δ, γ; CAMKIIα, β, δ, γ; CAMK4).
(§2) The global kinase profiling experiment was performed by Ambit Biosciences.

A further test concerns the target T2, STK35 (Homo sapiens, UniProt Q8TDR2).
T2 construct: purchased Ambit Biosciences (KINOMEscan)
The procedure: as §1, §2

A further test has as its target T3, BRAF(V600E) (Homo sapiens, UniProt P15056, V600E).
T3 construct: purchased Ambit Biosciences (KINOMEscan)
The procedure: as §1, §2

A further test deals with T4, PCTK2 (Homo sapiens, UniProt Q00537).
T4 construct: purchased Ambit Biosciences (KINOMEscan)
The procedure:
as §1, §2

In the next test the target is T5, SYK (Homo sapiens, UniProt P43405).
T5 construct: purchased Ambit Biosciences (KINOMEscan)
To be noted: for % Competition: 10 µM. The procedure:
as §1, §2

A further test addresses T6, GSK3B (Homo sapiens, UniProt P49841).
T6 construct: purchased Ambit Biosciences (KINOMEscan)
The procedure: as §1, §2

In a further test the target is T7, ROCK2 (Homo sapiens, UniProt O75116).
T7 construct: purchased Ambit Biosciences (KINOMEscan)
As to the method: as §1, §2

The target of the next test is T8, ACVR2B (Homo sapiens, UniProt Q13705).
T8 construct: purchased Ambit Biosciences (KINOMEscan)
To be noted: for % Competition: 10 µM. The procedure:
as §1, §2

Another test deals with T9, NLK (Homo sapiens, UniProt Q9UBE8).
T9 construct: purchased Ambit Biosciences (KINOMEscan)
T9 sequence (Q9UBE8 1-527): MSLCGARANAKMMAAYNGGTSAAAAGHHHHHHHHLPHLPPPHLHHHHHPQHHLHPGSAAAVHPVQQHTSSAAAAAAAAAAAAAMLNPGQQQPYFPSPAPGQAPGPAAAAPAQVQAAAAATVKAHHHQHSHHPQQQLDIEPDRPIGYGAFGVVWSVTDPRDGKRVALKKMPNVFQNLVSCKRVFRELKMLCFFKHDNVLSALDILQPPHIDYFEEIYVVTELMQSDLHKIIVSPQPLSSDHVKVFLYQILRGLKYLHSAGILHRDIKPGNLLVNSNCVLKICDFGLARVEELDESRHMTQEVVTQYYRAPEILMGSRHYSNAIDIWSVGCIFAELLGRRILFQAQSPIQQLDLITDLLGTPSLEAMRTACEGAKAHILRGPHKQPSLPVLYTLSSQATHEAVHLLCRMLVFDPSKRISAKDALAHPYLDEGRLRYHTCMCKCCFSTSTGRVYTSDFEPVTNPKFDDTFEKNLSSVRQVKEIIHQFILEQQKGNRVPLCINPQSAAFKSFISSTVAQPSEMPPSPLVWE
As to the method: as §1, §2

The next test concerns the target T10, BTK (Homo sapiens, UniProt Q06187).
T10 construct: purchased Ambit Biosciences (KINOMEscan)
To be noted: for % Competition: 10 µM. The procedure:
as §1, §2

T6 sequence (P49841 whole entry): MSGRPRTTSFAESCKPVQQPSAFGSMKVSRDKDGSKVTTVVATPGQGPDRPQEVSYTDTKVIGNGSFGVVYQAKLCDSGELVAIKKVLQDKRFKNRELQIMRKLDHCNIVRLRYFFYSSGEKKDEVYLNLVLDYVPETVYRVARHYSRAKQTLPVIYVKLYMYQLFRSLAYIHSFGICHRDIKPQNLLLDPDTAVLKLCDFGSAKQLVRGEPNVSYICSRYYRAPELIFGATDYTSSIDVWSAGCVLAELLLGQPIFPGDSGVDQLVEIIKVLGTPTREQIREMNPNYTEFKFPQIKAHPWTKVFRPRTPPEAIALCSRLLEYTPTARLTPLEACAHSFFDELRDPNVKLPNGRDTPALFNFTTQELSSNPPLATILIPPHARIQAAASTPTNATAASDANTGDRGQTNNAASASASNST
T8 sequence (Q13705 19-512): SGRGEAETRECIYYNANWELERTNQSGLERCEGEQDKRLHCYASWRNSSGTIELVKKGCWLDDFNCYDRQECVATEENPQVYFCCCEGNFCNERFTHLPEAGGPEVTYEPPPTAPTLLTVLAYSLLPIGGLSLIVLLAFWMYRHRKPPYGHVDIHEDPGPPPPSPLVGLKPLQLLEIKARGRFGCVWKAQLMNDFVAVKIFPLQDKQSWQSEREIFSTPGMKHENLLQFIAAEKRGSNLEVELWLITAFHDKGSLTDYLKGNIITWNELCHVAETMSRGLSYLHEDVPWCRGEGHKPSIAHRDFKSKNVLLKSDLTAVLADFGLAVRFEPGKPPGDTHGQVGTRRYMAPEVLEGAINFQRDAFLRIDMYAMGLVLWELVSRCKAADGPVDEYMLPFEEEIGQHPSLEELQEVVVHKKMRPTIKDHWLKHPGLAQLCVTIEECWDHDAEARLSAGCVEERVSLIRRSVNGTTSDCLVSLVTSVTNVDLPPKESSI
T2 sequence (Q8TDR2 whole entry): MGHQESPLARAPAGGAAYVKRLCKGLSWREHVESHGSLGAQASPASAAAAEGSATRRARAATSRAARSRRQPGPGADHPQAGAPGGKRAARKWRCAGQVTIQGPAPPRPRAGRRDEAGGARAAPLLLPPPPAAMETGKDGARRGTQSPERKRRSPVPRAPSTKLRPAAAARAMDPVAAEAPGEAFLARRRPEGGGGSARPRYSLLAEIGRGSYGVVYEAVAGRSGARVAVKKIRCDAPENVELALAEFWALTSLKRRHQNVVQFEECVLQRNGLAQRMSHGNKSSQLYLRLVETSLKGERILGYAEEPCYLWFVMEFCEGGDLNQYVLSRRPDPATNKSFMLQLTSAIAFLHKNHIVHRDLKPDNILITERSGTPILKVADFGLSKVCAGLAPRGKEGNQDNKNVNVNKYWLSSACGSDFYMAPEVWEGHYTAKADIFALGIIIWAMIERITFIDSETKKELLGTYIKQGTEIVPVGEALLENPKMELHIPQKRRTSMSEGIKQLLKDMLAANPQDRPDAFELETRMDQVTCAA
T3 sequence (P15056 whole entry V600E): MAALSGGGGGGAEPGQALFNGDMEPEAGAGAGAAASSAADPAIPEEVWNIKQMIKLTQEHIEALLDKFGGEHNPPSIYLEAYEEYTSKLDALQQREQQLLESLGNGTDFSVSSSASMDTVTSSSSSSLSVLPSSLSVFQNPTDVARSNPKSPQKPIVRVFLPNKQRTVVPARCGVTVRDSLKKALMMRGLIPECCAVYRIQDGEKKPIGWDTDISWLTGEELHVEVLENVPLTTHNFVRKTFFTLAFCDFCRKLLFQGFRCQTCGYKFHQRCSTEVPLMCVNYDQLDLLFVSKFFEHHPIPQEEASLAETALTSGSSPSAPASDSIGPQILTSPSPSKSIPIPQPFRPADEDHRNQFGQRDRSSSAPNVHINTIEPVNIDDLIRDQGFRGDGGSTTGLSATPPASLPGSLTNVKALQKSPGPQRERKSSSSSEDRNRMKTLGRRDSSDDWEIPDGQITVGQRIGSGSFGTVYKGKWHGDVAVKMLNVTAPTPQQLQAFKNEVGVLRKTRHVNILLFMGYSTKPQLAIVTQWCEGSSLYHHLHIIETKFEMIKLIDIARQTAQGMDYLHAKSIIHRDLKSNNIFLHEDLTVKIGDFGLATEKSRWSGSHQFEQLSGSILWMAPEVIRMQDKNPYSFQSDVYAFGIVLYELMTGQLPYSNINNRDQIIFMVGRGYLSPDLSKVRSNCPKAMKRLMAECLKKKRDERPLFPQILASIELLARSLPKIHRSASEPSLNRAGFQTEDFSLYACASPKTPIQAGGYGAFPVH
T7 sequence (O75116 whole entry): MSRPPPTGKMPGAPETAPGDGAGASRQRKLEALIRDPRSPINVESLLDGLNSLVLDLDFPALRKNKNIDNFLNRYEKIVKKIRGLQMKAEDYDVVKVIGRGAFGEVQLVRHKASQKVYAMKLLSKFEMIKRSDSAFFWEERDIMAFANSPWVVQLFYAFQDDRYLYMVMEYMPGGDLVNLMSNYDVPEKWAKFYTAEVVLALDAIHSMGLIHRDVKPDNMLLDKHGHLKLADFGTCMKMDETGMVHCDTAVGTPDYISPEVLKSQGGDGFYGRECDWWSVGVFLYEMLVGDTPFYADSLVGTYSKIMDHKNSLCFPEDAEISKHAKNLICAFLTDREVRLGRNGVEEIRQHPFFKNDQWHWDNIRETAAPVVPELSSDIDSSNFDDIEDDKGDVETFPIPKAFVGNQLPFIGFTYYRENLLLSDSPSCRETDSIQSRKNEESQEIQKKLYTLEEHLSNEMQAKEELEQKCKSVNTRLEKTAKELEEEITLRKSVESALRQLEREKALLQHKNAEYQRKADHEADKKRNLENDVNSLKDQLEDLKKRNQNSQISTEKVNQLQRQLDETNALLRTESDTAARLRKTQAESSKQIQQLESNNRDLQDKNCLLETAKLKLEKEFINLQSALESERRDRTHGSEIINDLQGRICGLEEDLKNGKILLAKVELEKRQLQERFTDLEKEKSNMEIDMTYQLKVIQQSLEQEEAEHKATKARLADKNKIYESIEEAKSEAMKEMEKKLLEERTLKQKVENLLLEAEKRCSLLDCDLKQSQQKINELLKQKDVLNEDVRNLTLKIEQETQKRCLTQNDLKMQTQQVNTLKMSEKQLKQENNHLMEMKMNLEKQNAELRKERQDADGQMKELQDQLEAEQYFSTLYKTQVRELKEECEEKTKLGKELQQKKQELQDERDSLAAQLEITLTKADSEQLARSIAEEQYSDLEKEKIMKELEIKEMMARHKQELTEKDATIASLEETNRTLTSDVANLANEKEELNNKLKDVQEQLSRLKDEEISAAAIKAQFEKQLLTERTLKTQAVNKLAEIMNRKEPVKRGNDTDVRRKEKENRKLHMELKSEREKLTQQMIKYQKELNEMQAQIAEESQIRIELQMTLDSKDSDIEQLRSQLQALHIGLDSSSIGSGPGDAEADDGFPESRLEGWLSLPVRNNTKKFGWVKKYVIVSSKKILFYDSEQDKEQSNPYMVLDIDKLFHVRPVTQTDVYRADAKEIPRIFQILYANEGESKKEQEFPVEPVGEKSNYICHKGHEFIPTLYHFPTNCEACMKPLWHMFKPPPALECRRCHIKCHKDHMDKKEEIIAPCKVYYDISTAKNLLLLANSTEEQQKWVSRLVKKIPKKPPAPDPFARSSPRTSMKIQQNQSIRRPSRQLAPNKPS
T4 sequence (Q00537 whole entry): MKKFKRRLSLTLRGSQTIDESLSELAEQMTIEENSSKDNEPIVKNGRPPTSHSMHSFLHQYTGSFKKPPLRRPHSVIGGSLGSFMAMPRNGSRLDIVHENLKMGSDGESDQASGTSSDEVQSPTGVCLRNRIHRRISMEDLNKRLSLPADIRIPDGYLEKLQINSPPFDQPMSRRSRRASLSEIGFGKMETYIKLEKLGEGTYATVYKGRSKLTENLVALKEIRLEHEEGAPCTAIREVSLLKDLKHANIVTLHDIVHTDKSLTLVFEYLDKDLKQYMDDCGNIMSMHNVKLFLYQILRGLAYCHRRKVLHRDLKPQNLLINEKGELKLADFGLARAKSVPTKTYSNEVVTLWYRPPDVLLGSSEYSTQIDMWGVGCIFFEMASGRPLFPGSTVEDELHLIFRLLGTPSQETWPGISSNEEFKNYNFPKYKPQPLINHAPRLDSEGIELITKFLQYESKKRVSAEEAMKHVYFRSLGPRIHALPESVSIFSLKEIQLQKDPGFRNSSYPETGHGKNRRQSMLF
T10 sequence (Q06187 whole entry): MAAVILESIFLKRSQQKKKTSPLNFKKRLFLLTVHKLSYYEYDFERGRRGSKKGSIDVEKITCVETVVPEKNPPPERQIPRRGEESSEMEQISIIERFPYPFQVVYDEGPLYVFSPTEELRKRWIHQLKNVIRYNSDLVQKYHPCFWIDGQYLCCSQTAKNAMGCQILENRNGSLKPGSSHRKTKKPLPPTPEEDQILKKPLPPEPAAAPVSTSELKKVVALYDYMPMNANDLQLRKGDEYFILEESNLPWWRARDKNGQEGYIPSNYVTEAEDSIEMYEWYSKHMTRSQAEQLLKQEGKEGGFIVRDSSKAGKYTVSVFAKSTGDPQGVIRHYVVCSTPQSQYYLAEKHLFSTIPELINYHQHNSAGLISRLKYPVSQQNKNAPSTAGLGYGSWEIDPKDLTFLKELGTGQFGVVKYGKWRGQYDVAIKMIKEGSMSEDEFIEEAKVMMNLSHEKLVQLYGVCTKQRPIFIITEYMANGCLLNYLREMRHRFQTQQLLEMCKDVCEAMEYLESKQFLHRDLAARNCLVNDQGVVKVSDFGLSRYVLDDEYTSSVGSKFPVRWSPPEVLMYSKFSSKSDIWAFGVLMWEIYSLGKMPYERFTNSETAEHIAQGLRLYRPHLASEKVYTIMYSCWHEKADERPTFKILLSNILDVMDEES

`Fc1ccc(-c2c(-c3ccncc3)[nH]c3nccnc23)cc1` [Compound 122]: the inhibition at 10 µM came out at 100% on STK36 (STK36, 10 µM, read-out: % Competition); 79% on STK35 (STK35, 10 µM, read-out: % Competition); 97% at BRAF(V600E) (BRAF(V600E), 10 µM, read-out: % Competition); 78% on PCTK2 (PCTK2, 10 µM, read-out: % Competition); 96% on GSK3B (GSK3B, 10 µM, read-out: % Competition); 89% at ROCK2 (ROCK2, 10 µM, read-out: % Competition). In addition, at NLK (NLK, 10 µM, read-out: % Competition), the inhibition at 10 µM was found to be 98%. In addition, the “% Competition” value is on record as 72% on SYK, 92% at ACVR2B and 91% on BTK.
Consider `CC(O)CNc1cc(-c2[nH]c3cccnc3c2-c2ccc(F)cc2)ccn1` (stereo not drawn) [Compound 140], for which the inhibition at 10 µM is 99 to 100% on STK36 (read-out: % Competition, STK36, 10 µM); below 50% on STK35 (read-out: % Competition); 78% at BRAF(V600E) (read-out: % Competition); below 50% at PCTK2 (read-out: % Competition); below 50% on GSK3B (read-out: % Competition); below 50% on ROCK2 (read-out: % Competition). Moreover, the inhibition at 10 µM at NLK (read-out: % Competition) was determined as 91%. Moreover, the “% Competition” value on SYK, at ACVR2B and at BTK was below 50% throughout.
With `Fc1ccc(-c2c(-c3ccncc3)[nH]c3nccnc23)cc1` [RO1155697-000-005], the inhibition at 10 µM on STK36 (STK36, compound concentration 10 uM, read-out: Percent Competition) stood at 100%; on STK35 (STK35, compound concentration 10 uM, read-out: Percent Competition) it was 79%; on BRAF(V600E) (BRAF(V600E), compound concentration 10 uM, read-out: Percent Competition), 97%; at PCTK2 (PCTK2, compound concentration 10 uM, read-out: Percent Competition) it was 78%; on GSK3B (GSK3B, compound concentration 10 uM, read-out: Percent Competition) it was 96%; at ROCK2 (ROCK2, compound concentration 10 uM, read-out: Percent Competition), 89%. Further, the inhibition at 10 µM at NLK (NLK, compound concentration 10 uM, read-out: Percent Competition) was 98%. Further, the “Percent Competition” value on SYK (compound concentration 10 uM) was 72%; at ACVR2B (compound concentration 10 uM), 92%; at BTK (compound concentration 10 uM), 91%.

These data come from article PMC3445516 (PLoS ONE, 2012).
